Test results as given in patent US12371428B2 (Exelixis, Inc., priority 2019, dated 2025).

Experiments:
[1] = target: KDR (phospho-KDR, VEGF165-stimulated HUVEC cells) (Homo sapiens (Human), UniProt P35968); assay: KDR autophosphorylation ELISA in HUVEC cells (Example G); type: cell-based; conditions: cellular activity; KDR autophosphorylation ELISA in HUVEC cells
In short: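 Cells seeded, grown 24 h at 37 °C, starved 24 h serum-free; cpd 8-pt curve, 0.3% DMSO, 1 h; VEGF165 100 ng/mL, 5 min; cold PBS wash, lysis with orthovanadate and protease/phosphatase inhibitors; pKDR ELISA; IC50 by 4-parameter logistic regression.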

[2] = target: Human MET (residues 956-1390) (Homo sapiens (Human), UniProt P08581); assay: Human Met kinase assay, HTRF KinEase (Example D-2); type: biochemical; conditions: protocol of Example D-2 (other compounds); read-out: c-Met IC50
Human MET (residues 956-1390), sequence (P08581 956-1390): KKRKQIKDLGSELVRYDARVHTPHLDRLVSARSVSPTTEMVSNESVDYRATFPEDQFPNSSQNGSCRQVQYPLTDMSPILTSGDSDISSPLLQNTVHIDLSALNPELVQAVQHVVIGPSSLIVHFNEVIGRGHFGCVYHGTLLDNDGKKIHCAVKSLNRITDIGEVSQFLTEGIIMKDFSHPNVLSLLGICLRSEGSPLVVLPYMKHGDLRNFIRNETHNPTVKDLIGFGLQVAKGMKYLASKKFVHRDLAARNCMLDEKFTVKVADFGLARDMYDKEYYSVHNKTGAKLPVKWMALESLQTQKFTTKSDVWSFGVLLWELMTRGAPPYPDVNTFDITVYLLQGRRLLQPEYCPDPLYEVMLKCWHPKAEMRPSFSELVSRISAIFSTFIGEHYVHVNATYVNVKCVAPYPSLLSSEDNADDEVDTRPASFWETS
In short: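 IC50 values come from a 4-parameter logistic fit of the […] fluorescence ratio, set between DMSO (100%) and reference compound at 1 μM (0%). Reactions held MET 956-1390 at 0.1 ng/well, ATP at Km, biotinylated peptide, 5 mM MgCl2, 1 mM MnCl2, 1 mM DTT and 3% DMSO, and ran 40 min at room temperature before streptavidin-XL665/Eu-antibody detection.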

KDR (phospho-KDR, VEGF165-stimulated HUVEC cells), sequence (P35968 20-1356): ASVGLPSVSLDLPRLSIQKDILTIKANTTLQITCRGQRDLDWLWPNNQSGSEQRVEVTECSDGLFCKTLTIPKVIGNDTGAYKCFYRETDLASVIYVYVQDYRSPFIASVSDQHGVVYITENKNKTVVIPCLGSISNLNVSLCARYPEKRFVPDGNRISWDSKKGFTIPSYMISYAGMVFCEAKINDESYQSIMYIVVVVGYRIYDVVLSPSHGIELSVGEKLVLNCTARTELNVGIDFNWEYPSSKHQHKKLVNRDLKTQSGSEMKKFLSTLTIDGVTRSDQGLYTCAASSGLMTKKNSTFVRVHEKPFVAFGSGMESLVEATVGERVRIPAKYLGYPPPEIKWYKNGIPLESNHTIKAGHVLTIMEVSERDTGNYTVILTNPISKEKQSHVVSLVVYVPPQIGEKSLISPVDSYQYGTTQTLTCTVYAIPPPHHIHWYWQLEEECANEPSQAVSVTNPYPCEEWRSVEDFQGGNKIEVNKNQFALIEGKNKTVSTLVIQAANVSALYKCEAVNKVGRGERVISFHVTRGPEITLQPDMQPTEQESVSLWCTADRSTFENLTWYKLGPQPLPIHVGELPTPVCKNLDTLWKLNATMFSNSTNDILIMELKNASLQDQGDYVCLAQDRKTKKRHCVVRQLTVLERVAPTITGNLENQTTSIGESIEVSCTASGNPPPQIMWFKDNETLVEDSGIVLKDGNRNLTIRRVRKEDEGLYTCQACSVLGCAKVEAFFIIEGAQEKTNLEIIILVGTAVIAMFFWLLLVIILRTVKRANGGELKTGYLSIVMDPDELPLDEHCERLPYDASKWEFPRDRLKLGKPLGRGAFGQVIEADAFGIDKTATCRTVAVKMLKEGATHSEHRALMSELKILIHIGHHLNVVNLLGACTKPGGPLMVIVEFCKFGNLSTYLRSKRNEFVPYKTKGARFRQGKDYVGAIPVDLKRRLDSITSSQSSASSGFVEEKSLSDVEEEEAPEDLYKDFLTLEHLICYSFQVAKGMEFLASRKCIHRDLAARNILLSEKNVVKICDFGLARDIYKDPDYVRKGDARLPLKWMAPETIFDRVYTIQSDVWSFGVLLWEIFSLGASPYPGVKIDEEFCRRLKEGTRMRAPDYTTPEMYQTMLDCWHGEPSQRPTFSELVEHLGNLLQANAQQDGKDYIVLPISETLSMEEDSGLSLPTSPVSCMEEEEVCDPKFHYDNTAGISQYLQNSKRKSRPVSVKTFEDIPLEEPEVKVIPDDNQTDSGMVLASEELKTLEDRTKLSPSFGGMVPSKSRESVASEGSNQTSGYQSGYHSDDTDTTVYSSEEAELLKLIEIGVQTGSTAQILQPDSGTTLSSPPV

| SMILES | IC50 [1] [nM] | IC50 [2] [nM] |
| --- | --- | --- |
| COc1cnc2c(Oc3ccc(NC(=O)c4n[nH]c(C)c(-c5ccc(F)cc5C)c4=O)cc3)ccnc2c1 [Compound 248, 5-(4-Fluoro-2-methylphenyl)-N-[4-[(7-methoxy-1,5-naphthyridin-4-yl)oxy]phenyl]-6-methyl-4-oxo-1H-pyridazine-3-carboxamide] | > 300 | < 100 |
| COc1cnc2c(Oc3ccc(NC(=O)c4nn(C)c(C)c(-c5ccc(F)cc5)c4=O)cc3F)ccnc2c1 [Compound 250, N-[3-Fluoro-4-[(7-methoxy-1,5-naphthyridin-4-yl)oxy]phenyl]-5-(4-fluorophenyl)-1,6-dimethyl-4-oxopyridazine-3-carboxamide] | > 300 | < 100 |
| COc1cnc2c(Oc3ccc(NC(=O)c4nn(C)c(C)c(-c5ccc(F)cc5)c4=O)cc3)ccnc2c1 [Compound 251, 5-(4-Fluorophenyl)-N-[4-[(7-methoxy-1,5-naphthyridin-4-yl)oxy]phenyl]-1,6-dimethyl-4-oxopyridazine-3-carboxamide] | > 300 | < 100 |
| COc1cnc2c(Oc3ccc(NC(=O)c4c(C)ncn(-c5ccc(F)cc5)c4=O)cc3F)ccnc2c1 [Compound 256, N-[3-Fluoro-4-[(7-methoxy-1,5-naphthyridin-4-yl)oxy]phenyl]-1-(4-fluorophenyl)-4-methyl-6-oxopyrimidine-5-carboxamide] | > 300 | < 100 |
| COc1cc2nccc(Oc3ccc(NC(=O)c4cn(CC(F)(F)F)c(C)c(-c5ccc(F)cc5)c4=O)cc3F)c2cc1OC [Compound 259, N-[4-(6,7-Dimethoxyquinolin-4-yl)oxy-3-fluorophenyl]-5-(4-fluorophenyl)-6-methyl-4-oxo-1-(2,2,2-trifluoroethyl)pyridine-3-carboxamide] | 100 to 300 | 100 to 300 |
| COc1cnc2c(Oc3ccc(NC(=O)c4cn(CC(F)(F)F)c(C)c(-c5ccc(F)cc5)c4=O)cc3F)ccnc2c1 [Compound 261, N-[3-Fluoro-4-[(7-methoxy-1,5-naphthyridin-4-yl)oxy]phenyl]-5-(4-fluorophenyl)-6-methyl-4-oxo-1-(2,2,2-trifluoroethyl)pyridine-3-carboxamide] | > 300 | < 100 |

Continued, values first:

| IC50 [1] [nM] | IC50 [2] [nM] | SMILES |
| --- | --- | --- |
| 100 to 300 | < 100 | COc1cnc2c(Oc3ccc(NC(=O)c4n[nH]c(C)c(-c5ccc(F)cc5C)c4=O)cc3F)ccnc2c1 [Compound 249A, N-[3-Fluoro-4-[(7-methoxy-1,5-naphthyridin-4-yl)oxy]phenyl]-5-(4-fluoro-2-methylphenyl)-6-methyl-4-oxo-1H-pyridazine-3-carboxamide] |
| < 100 | < 100 | COCCOc1nc2c(Oc3ccc(NC(=O)c4n[nH]c(C)c(-c5ccc(F)cc5C)c4=O)cc3F)ccnc2cc1OC [Compound 252, N-[3-Fluoro-4-[[7-methoxy-6-(2-methoxyethoxy)-1,5-naphthyridin-4-yl]oxy]phenyl]-5-(4-fluoro-2-methylphenyl)-6-methyl-4-oxo-1H-pyridazine-3-carboxamide] |
| < 100 | < 100 | COc1cnc2c(Oc3ccc(NC(=O)c4c(C)nc(C)n(-c5ccc(F)cc5)c4=O)cc3F)ccnc2c1 [Compound 257, N-[3-Fluoro-4-[(7-methoxy-1,5-naphthyridin-4-yl)oxy]phenyl]-1-(4-fluorophenyl)-2,4-dimethyl-6-oxopyrimidine-5-carboxamide] |
| 100 to 300 | < 100 | COc1cnc2c(Oc3ccc(NC(=O)c4c(C)nc(C)n(-c5ccc(F)cc5)c4=O)cc3)ccnc2c1 [Compound 258, 1-(4-Fluorophenyl)-N-[4-[(7-methoxy-1,5-naphthyridin-4-yl)oxy]phenyl]-2,4-dimethyl-6-oxopyrimidine-5-carboxamide] |
| < 100 | < 100 | COc1cc2nccc(Oc3ccc(NC(=O)c4ncc(C)n(-c5ccc(F)cc5)c4=O)cc3)c2nc1OC [Compound 262, N-[4-[(6,7-Dimethoxy-1,5-naphthyridin-4-yl)oxy]phenyl]-4-(4-fluorophenyl)-5-methyl-3-oxopyrazine-2-carboxamide] |
